Results: ChEMBL document CHEMBL3431459, “Roche carnitine palmitoyltransferase modulator screening data (supplementary data associated with the publication CHEMBL2216752)”
Values after ≈ are worked out from the molar mass of the structure shown.

Legend:
[1] = SUPPLEMENTARY: PAMPA permeability assay; assay type: physicochemical; conditions: read-out: Permeability
[2] = SUPPLEMENTARY: Lipophilicity (log D) Determination by high-throughput shake-flask; assay type: physicochemical; conditions: octanol/water
[3] = target: T1, Carnitine O-palmitoyltransferase 1, liver isoform (Homo sapiens, UniProt P50416); assay: (§1) SUPPLEMENTARY: Inhibition of Carnitine palmitoyltransferase 1, liver isoform
T1 sequence (P50416 whole entry): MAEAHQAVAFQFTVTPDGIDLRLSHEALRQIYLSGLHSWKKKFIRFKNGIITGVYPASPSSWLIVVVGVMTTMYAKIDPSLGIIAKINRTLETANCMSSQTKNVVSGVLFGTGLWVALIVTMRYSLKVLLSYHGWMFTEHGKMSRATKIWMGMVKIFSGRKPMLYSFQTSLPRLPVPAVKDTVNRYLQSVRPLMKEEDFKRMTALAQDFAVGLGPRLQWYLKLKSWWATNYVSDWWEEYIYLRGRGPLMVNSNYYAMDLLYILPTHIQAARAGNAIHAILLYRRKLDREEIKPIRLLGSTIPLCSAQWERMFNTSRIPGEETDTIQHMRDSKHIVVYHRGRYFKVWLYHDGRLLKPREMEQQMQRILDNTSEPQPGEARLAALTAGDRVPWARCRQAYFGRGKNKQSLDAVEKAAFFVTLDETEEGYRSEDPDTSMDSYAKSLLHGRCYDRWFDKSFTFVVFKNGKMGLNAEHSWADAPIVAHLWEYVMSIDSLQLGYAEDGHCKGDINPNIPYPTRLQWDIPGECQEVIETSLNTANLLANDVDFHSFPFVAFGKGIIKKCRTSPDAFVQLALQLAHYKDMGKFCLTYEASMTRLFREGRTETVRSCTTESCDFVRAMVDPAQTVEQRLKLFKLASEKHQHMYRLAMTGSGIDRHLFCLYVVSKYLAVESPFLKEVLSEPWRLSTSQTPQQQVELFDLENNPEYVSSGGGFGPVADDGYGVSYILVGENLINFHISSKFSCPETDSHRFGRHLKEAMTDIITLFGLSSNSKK

[4] = target: T2, Carnitine O-palmitoyltransferase 1, liver isoform (Rattus norvegicus, UniProt P32198); assay: as §1
T2 sequence (P32198 whole entry): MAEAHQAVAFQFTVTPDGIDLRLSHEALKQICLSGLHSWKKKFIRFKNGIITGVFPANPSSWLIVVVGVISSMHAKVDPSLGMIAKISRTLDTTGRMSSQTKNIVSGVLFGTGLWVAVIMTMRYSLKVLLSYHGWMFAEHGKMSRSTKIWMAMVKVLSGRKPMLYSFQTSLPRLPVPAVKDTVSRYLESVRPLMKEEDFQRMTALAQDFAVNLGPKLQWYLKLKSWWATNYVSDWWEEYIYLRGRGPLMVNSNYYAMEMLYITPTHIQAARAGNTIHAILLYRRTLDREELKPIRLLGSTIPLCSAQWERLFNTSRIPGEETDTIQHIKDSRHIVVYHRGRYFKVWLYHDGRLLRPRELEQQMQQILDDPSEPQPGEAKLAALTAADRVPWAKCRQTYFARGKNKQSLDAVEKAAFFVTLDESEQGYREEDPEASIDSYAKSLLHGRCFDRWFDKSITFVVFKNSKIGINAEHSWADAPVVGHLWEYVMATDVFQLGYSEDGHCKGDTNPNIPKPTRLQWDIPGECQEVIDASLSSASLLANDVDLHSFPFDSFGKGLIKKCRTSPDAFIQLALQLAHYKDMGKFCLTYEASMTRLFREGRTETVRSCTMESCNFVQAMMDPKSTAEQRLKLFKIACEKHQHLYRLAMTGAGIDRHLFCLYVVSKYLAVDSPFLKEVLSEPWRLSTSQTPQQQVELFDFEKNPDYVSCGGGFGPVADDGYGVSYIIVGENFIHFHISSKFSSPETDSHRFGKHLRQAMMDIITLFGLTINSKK

[5] = SUPPLEMENTARY: Lyophilisation Solubility Assay (LYSA); assay type: physicochemical; conditions: read-out: Kinetic_solubility
[6] = target: T3, Carnitine O-palmitoyltransferase 1, muscle isoform (Homo sapiens, UniProt Q92523); assay: SUPPLEMENTARY: Inhibition of Carnitine palmitoyltransferase 1, muscle isoform; set-up: species or system Muscle tissue
T3 sequence (Q92523 whole entry): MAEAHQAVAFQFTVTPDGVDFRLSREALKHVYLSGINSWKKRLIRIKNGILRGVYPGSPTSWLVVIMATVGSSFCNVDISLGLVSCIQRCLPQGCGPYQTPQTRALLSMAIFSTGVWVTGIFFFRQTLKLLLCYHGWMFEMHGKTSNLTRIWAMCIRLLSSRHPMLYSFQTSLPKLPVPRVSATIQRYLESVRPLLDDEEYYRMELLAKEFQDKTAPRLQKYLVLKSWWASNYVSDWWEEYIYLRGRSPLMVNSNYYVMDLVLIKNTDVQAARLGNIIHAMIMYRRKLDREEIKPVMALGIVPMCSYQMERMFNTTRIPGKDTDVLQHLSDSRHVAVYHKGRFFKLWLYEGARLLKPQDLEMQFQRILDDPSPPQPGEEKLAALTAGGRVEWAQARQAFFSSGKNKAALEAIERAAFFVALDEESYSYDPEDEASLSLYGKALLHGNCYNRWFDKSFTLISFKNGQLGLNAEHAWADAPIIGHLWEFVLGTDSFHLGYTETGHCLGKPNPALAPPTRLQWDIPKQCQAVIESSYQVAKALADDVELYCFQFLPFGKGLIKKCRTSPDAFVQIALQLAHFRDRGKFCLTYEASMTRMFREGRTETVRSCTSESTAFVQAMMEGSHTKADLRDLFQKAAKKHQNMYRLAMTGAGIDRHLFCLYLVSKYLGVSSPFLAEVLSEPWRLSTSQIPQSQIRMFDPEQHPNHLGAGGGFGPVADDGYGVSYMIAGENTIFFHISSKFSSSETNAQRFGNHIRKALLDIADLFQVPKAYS

[7] = target: T4, Carnitine O-palmitoyltransferase 2, mitochondrial (Rattus norvegicus, UniProt P18886); assay: (§2) SUPPLEMENTARY: Inhibition of Carnitine palmitoyltransferase 2
T4 sequence (P18886 whole entry): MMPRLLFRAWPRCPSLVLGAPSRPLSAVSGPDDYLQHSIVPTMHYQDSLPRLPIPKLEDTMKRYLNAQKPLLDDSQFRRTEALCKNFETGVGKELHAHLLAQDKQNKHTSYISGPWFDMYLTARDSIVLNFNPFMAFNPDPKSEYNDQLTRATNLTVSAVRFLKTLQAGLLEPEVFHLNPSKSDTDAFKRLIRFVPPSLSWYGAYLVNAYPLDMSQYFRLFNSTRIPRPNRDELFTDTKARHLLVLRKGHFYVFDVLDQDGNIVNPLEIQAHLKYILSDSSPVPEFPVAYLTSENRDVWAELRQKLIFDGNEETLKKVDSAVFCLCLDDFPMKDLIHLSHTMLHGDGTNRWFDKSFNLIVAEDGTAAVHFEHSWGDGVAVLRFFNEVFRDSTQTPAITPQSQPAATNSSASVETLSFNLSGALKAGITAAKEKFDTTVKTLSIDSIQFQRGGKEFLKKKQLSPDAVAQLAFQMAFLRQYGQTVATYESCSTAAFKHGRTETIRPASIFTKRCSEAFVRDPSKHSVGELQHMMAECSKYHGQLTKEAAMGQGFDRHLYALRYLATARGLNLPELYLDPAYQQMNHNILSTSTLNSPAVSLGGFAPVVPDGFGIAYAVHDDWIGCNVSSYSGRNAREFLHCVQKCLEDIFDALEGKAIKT

[8] = target: T5, Carnitine O-palmitoyltransferase 2, mitochondrial (Homo sapiens, UniProt P23786); assay: as §2
T5 sequence (P23786 whole entry): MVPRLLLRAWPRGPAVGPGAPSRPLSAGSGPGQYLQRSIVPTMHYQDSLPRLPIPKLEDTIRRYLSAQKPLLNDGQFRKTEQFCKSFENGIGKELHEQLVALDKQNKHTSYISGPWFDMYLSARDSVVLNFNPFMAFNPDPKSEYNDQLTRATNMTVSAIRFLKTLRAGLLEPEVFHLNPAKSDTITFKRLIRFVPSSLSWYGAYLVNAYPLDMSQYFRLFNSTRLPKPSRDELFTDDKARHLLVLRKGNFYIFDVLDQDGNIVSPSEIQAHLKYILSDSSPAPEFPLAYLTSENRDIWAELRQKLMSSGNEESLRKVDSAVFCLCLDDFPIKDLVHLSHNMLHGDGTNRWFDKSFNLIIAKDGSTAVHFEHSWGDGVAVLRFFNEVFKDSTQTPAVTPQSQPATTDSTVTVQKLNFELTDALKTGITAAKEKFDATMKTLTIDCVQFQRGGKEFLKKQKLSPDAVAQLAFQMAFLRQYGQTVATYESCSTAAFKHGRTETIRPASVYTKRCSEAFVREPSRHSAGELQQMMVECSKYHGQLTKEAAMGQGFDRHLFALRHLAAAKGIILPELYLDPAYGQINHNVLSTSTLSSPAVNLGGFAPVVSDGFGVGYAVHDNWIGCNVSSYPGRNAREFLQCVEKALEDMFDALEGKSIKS

| SMILES | Papp [1] [×10⁻⁶ cm/s] | logD [2] | IC50 [3] [µM] | IC50 [4] [µM] | solubility kinetic [5] [µg/mL] | IC50 [6] [µM] | IC50 [7] [µM] | IC50 [8] [µM] |
| --- | --- | --- | --- | --- | --- | --- | --- | --- |
| O=C(O)c1ccc(NC(=O)c2ccc(NS(=O)(=O)c3cc(Cl)cc(Cl)c3)s2)cc1 | 0.01 | -1.09 | 0.153 | 0.261 | 378 (≈ 802 µM) | 4.38 | > 100 | > 100 |
| CCOC(=O)c1cn2ccc(-c3noc([C@H]4CCCCN4C(=O)COc4ccccc4)n3)cc2n1 | 1.99 | 2.92 | 0.0681 | 0.459 | 22 (≈ 46.3 µM) | > 100 | > 100 | > 100 |
| COc1ccc(Cl)cc1S(=O)(=O)N1CCOc2ccc(C(=O)Nc3ccc(C(=O)O)c(F)c3)cc21 | 1.71 | 0.29 | 0.0651 | 0.0805 | 15 (≈ 28.8 µM) | 1.8 | 23.4 | 6.3 |
| COc1ccc(Cl)cc1S(=O)(=O)N1CCOc2ccc(C(=O)Nc3ccc(C(=O)O)c(Cl)c3)cc21 | 1.45 | 0.12 | 0.248 | 0.1 | > 716 | 3.58 | 21 | 5.13 |
| COc1ccc(Cl)cc1S(=O)(=O)N1CCc2ccc(C#Cc3ccc(C(=O)O)cc3)cc21 | 0.26 | 3.3 | 0.111 | 0.112 | < 1 | 82.2 | > 100 | > 100 |
| COc1ccc(Cl)cc1S(=O)(=O)N1CCOc2ccc(C(=O)Nc3ccc(C(=O)O)nc3)cc21 | 0.57 | -0.42 | 0.232 | 0.575 | 195 (≈ 387 µM) | 22.6 | 24.6 | 5.45 |

Next, values leading:

| Papp [1] [×10⁻⁶ cm/s] | logD [2] | IC50 [3] [µM] | IC50 [4] [µM] | solubility kinetic [5] [µg/mL] | IC50 [6] [µM] | IC50 [7] [µM] | IC50 [8] [µM] | SMILES |
| --- | --- | --- | --- | --- | --- | --- | --- | --- |
| 1.56 | 3.38 | 0.0786 | 0.399 | 9 (≈ 20.6 µM) | > 100 | > 100 | 24.3 | CCOC(=O)c1cncc(-c2noc([C@H]3CCCCN3C(=O)COc3ccccc3)n2)c1 |
| 1.64 | 2.71 | 0.0874 | 0.683 | 53 (≈ 132 µM) | > 100 | 61.5 | 13.9 | O=C(COc1ccccc1)N1CCCC[C@@H]1c1nc(-c2ccc3[nH]ncc3c2)n[nH]1 |
| 3.83 | 1.88 | 0.113 | 0.41 | 141 (≈ 346 µM) | > 100 | 86.3 | 24.3 | NC(=O)c1cncc(-c2noc([C@H]3CCCCN3C(=O)COc3ccccc3)n2)c1 |
| 5.55 | 2.79 | 0.0964 | 0.663 | 10 (≈ 22.4 µM) | > 100 | 18.3 | 12.1 | NC(=O)c1cn2ccc(-c3noc([C@H]4CCCCN4C(=O)COc4ccccc4)n3)cc2n1 |
| 0.51 | 1.98 | 0.242 | 0.713 | 138 (≈ 307 µM) | > 100 | 70 | 30.3 | O=C(NCCO)c1cccc(-c2n[nH]c([C@H]3CCCCN3C(=O)COc3ccccc3)n2)c1 |
| 3.31 | 2.45 | 0.159 | 1.3 | 229 (≈ 442 µM) | > 100 | 73.6 | 74.3 | COC[C@@H]1CCN(NC(=O)c2cccc(-c3n[nH]c([C@H]4CCCCN4C(=O)COc4ccccc4)n3)c2)C1 |
| 2.96 | 2.98 | 0.161 | 0.219 | 31 (≈ 80 µM) | > 100 | 33.8 | 29.8 | N#Cc1cccc(-c2n[nH]c([C@H]3CCCCN3C(=O)COc3ccccc3)n2)c1 |
| 2.89 | 2.96 | 0.0356 | 0.33 | 56 (≈ 129 µM) | > 100 | 76.2 | 65.7 | CCC(=O)Nc1cccc(-c2n[nH]c([C@H]3CCCCN3C(=O)COc3ccccc3)n2)c1 |
